Assay results: patent US9879243B2, “Culture medium for cell growth and transfection” (LIFE TECHNOLOGIES CORPORATION, priority 2001, dated 2018)

Experiments:
CHO cells = assay: Effect of replacement compounds on the growth of CHO cells in CD CHO medium without transferrin, three passages; assay type: cell-based, Chinese hamster; settings: third passage
Outline: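 CHO cells seeded at 1×10^5 viable cells/mL in transferrin-free CD CHO medium, 37 °C, 8% CO2, subcultured every 4 days for three passages. Compounds tested alone or complexed with ferric chloride or ferrous sulfate at 25, 50 and 100 μM; growth as mean percentage of the 5 μg/mL holo-transferrin control at the third passage, duplicate cultures.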

Sp2/0 cells = assay: Effect of replacement compounds on the growth of Sp2/0 cells in CD Hybridoma medium without transferrin, three passages; assay type: cell-based; settings: third passage
293 cells [1] = assay: β-galactosidase expression after transfection (pCMV-SPORT-β-gal, LIPOFECTAMINE 2000) of 293 cells in monolayer culture, 24-well plates; assay type: cell-based, human; settings: Table 8, replacement compounds 25 μM in test media, 24 hrs post-transfection
Method: When cultured in suspension, cells were split to 3×10^5 viable cells per ml at each passage. On the week of transfection cells were seeded at 3×10^5 viable cells per ml. After ˜48 hrs of growth (day 2) cells were vortexed for 30 seconds and counted and appropriate volumes used for transfection as described in procedures below.
In addition, the base media comprises 2.4 g/L NaHCO3, 2.98 g/L Hepes, 4 mM L-glutamine and 3 ml/L PLURONIC F-68 (Invitrogen Corp., Carlsbad, Calif.).
The osmolarity is adjusted to from about 275-310 mOsm, preferably about 280 mOsm and the pH is adjusted to from about 7.0 to about 7.45 preferably about 7.4 respectively.
Three wells were set up for each treatment. A volume of media corresponding to 3×10^6 viable cells was centrifuged. The supernatant was removed and the cells re-suspended in 600 μl test media. Each well of a 24 well plate received 200 μl of the re-suspended cells.
To prepare the nucleic acid for the transfection experiments, 93 μl test media+3 μl DNA+24 μl LIPOFECTAMINE 2000 were combined in a microfuge tube and complexed for 30 minutes. A 40 μl aliquot of complex was added to each well. 250 μl test media was added to each well five hours after addition of complex. The final cell concentration was 1×10^6 viable cells per well; the final DNA concentration was 1 μg per 1×10^6 viable cells and the final LIPOFECTAMINE 2000 concentration was 8 μl per 1×10^6 viable cells.
24 hrs post-transfection, samples were collected for β-galactosidase quantitation. The contents of duplicate wells were pooled (i.e. ˜2×10^6 cells for the assay) for each sample and transferred to a microfuge tube. The cells were centrifuged, the supernatant was removed and the cells were re-suspended in 1 ml of D-PBS. The cells were pelleted a second time and re-suspended in 1 ml of D-PBS. The samples were then stored at −70° C. Prior to the assay for β-galactosidase, samples were freeze-thawed a total of five times.
293 cells were grown in monolayer culture in the presence of the various replacement compounds indicated and transfection experiments performed as described above. The results are shown in Table 8 and the values are β-galactosidase activity expressed as nanograms of β-galactosidase per 2×10^6 cells. A comparison was made between the transfection efficiency of DNA complexes formed in D-MEM medium and DNA complexes formed in test medium. […]
For cells transfected in 24-well plates, cells densities used were 1×10^6 viable cells per well.

293 cells [2] = assay: Effect of replacement compounds on the growth of 293 cells in 293 SFM without transferrin, three passages; assay type: cell-based, human; settings: third passage, control 5 μg/mL human holo-transferrin
[3] = 25 μM, control 5 μg/mL human holo-transferrin

Nitriloacetic Acid•Ferric Chloride
mean percentage of control growth (CHO cells; [3]): 127 percentage of control growth
mean percentage of control growth (CHO cells; 50 μM): 107 percentage of control growth
mean percentage of control growth (CHO cells; 100 μM): 107 percentage of control growth
mean percentage of control growth (Sp2/0 cells; [3]): 88 percentage of control growth
mean percentage of control growth (Sp2/0 cells; 50 μM): 87 percentage of control growth
mean percentage of control growth (Sp2/0 cells; 100 μM): 70 percentage of control growth
β-galactosidase activity; D-MEM used for complexing, Test media to re-suspend cells (293 cells [1]): 45 nanograms of β-galactosidase per 2×10^6 cells
β-galactosidase activity; Test Media used for complexing and to re-suspend cells (293 cells [1]): 33 nanograms of β-galactosidase per 2×10^6 cells
mean percentage of control growth (293 cells [2]; 25 μM, iron equimolar where combined): 100 percentage of control growth
mean percentage of control growth (293 cells [2]; 50 μM): 118 percentage of control growth
mean percentage of control growth (293 cells [2]; 100 μM): 74 percentage of control growth
